We go through 12 molecules from patent US6747050B1, “Isoxazoline derivative and a process for the preparation thereof” (LG Chem Investment Ltd., priority 1999, dated 2004).

For data set [1], the system named is W138 cells (human embryonal lung fibroblast). In words: Protection from IFNγ and anti-Fas antibody-induced apoptosis (XTT). The format is cell-based. The note with it: IFNγ 200 units/ml + anti-Fas antibody 40 ng/well; for cell viability (control without Fas antibody = 100%): 50 μM, 50 µM; for viability at 0.4 µM / viability at 2 µM / viability at 10 µM / viability at 50 µM: Homo sapiens, read-out: cell viability (control without Fas antibody = 100%); for viability at 0.4 µM: W138, 0.4 μM; for viability at 2 µM: W138, 2 μM; for viability at 10 µM: W138, 10 μM; for viability at 50 µM: W138, 50 μM. The procedure: W138 cells (human embryonal lung fibroblast) were grown in a medium containing DMEM-10% FBS within, 10 cm diameter dishes until reaching at confluency. The cells were seeded into a 24-well plate at day 1 and incubated overnight while the volume of medium was maintained to 400 μl. Cells were treated with 200 units/ml of IFNγ at day 2 and incubated over 12 hrs or more. At day 3, each 100 μl of test compound was added to the cells after diluting the 10 mM stock compound in DMSO to final concentrations of 50, 10, 2, and 0.4 μM, respectively. The cells were incubated for 2 hrs in order for allowing the compound to enter into the cells and then treated with 40 ng/well of anti-Fas antibody(apoptosis was induced 2 hrs after antibody was treated and the incubation was continued overnight). The control was not treated with Fas antibody. […] After coloring, 100-200 μl of the supernatant was transferred to a 96-well plate and the absorbance at 490 nm was read with ELISA plate reader. For the blank, XTT solution was added to the well continued the medium only. Plotting was determined by comparing with the control group (100% when Fas antibody was not treated).

The target of another data set is T1, caspase-1 (Homo sapiens, UniProt P29466).
T1 construct: made in house; host or cells: transformed bacterium (pET vector)
T1 sequence (P29466 120-297 limits assumed): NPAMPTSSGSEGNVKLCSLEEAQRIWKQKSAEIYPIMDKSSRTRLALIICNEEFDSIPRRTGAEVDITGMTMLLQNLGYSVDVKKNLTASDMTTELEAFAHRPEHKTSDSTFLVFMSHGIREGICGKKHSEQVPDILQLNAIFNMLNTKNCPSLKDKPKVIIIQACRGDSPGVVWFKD
T1 sequence (P29466 317-404 limits assumed): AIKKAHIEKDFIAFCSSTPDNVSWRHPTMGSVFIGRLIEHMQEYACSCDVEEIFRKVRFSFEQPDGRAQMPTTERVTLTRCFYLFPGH
The experiment in a line: Recombinant caspase enzyme inhibition, fluorogenic substrate Ac-YVAD-AMC. The format is biochemical. As to conditions: Reversible Inhibitor. The procedure:
In the present experiment recombinant caspases were purified from a transformed bacterium after human caspase genes were cloned into the expression vector pET, and then used in the experiment (Thornberry, N. A. et al. Nature, 1992, 356, 768. Thornberry, N. A. Methods in Enzymology, 1994, 615.).
Enzymatic activity was measured by a known procedure (Walker N. P. C. et al., Cell 1994, 78, 343). Briefly, 10 ng of recombinant protein was mixed with 50 mM Tris(pH 7.0), 1 mM DTT, 0.5 mM EDTA, 10% Glycerol buffer containing 1˜100 μM of enzyme substrate, Ac-YVAD-AMC or Ac-DEVD-AMC and then the changes by isolated AMC at 37° C. were recorded. The inhibitory activity for caspases was calculated from the early enzyme reaction rate by measuring the changes with fluorescence excited at […] and emitted at 460 nm (Range; Ki<100 nM).

In data set [2] the test system is caspase-3-like activity (Ac-DEVD-pNA). The experiment in a line: Caspase-3-like activity in TNFα/ActD-treated primary rat hepatocytes. The note with it: 100 μM, 8 hrs. The format is cell-based. As to the method:
Primary rat hepatocytes were isolated and purified from male Sprague-Dawley rats using a collagenase digestion method. The hepatocytes were purified over 30% Percoll gradient by centrifugation at 1,000×g for 10 min. at 4° C. […] The cells were plated on collagen-coated tissue culture plates at a density of 2×10^5 cells/well in 12-well plates for cell viability analysis or 5×10^6 cells/100 mm dish for enzyme assays. After 18 hrs preculture, the cells were treated with 2,000 units/ml TNFα and 0.2 μg/ml Actinomycin (ActD). Caspase activity and cell viability was determined by colorimetry using a caspase substrate Ac-DEVD-pNA and crystal violet staining method at 8 hrs and 12 hrs, respectively.

Consider `CC(C)[C@H](NC(=O)c1ccc2ccccc2c1)C1=NOC(Cc2ccccc2)(C(=O)N[C@@H](CC(=O)O)C(=O)COC(=O)c2c(Cl)cccc2Cl)C1` (stereo partly drawn) [Compound 28, (3S)-3-{3-[(1S)-1-(Naphthalene-2-carbonylamino)-2-methyl-propyl]-5-phenylmethyl-4,5-dihydro-isoxazole-5-carbonylamino}-4-keto-5-(2,6-dichlorobenzoyloxy)-pentanoic Acid], for which, in data set [1], the “cell viability (control without Fas antibody = 100%)” value is listed as 90.39%, the viability at 0.4 µM came out at 14.7%, the viability at 2 µM stood at 17.3% and the viability at 10 µM is 82.4%. Also, in data set [1], the viability at 50 µM worked out at 90%.
On to `CC(C)[C@H](NC(=O)CCC(=O)O)C1=NOC(C)(C(=O)N[C@@H](CC(=O)O)C(=O)COc2ccccc2)C1` (mixture of isomers) [Compound 47, (3S)-3-{3-[2-Methyl-(1S)-1-(succinoylamino)-propyl]-5-methyl-4,5-dihydro-isoxazole-5-carbonylamino}-4-keto-5-phenoxy-pentanoic Acid], for which the Ki on caspase-1 is 177 nM.
As for `CC(C)[C@H](NC(=O)c1ccc2ccccc2c1)C1=NOC(C(=O)N[C@@H](CC(=O)O)C(=O)COc2ccccc2)C1` (stereo partly drawn) [Compound 30, (3S)-3-{3-[2-Methyl-(1S)-1-(2-naphthalenecarbonylamino)-propyl]-4,5-dihydro-isoxazole-5-carbonylamino}-4-keto-5-phenoxy-pentanoic Acid], the Ki at caspase-1 amounted to 19.1 nM.
On the same count and under the same terms, under `CC(C)[C@H](NC(=O)c1ccc2ccccc2c1)C1=NOC(C(=O)N[C@@H](CC(=O)O)C(=O)COc2ccc3ccccc3c2)C1` (stereo partly drawn) [Compound 29, (3S)-3-{3-[(1S)-1-(Naphthalene-2-carbonylamino)-2-methyl-propyl]-4,5-dihydro-isoxazole-5-carbonylamino}-4-keto-5-(2-naphthyloxy)-pentanoic Acid] stands 0.324 nM; under `CC(C)[C@H](NC(=O)CCC(=O)O)C1=NOC(C)(C(=O)N[C@@H](CC(=O)O)C(=O)COc2ccc3ccccc3c2)C1` (single isomer, unassigned) [Compound 81], 26900 nM.
As for `CC(=O)[C@H](CC(=O)O)NC(=O)C1(COc2ccccc2)CC([C@@H](NC(=O)c2ccc3ccccc3n2)C(C)C)=NO1` (mixture of isomers) [Compound 22, (3S)-3-{3-[(1S)-1-(Quinoline-2-yl-carbonylamino)-2-methyl-propyl]-5-phenoxymethyl-4,5-dihydro-isoxazole-5-carbonylamino}-4-keto-pentanoic Acid], in data set [1], the “cell viability (control without Fas antibody = 100%)” value is listed as 78.29%, the viability at 0.4 µM is 14.4%, the viability at 2 µM stood at 18.3% and the viability at 10 µM is 35.4%. The viability at 50 µM in data set [1] was 78%.
In the case of `CC1(C(=O)N[C@@H](CC(=O)O)C(=O)COc2ccccc2)CC([C@H](CCC(=O)O)NC(=O)CCC(=O)O)=NO1` (mixture of isomers) [Compound 46, (3S)-3-{3-[(1S)-1-(Succinoylamino)-3-carboxy-propyl]-5-methyl-4,5-dihydro-isoxazole-5-carbonylamino}-4-keto-5-phenoxy-pentanoic Acid], the Ki at caspase-1 came to 29.1 nM.
Still for that read-out and setting: under `CC(C)[C@H](NC(=O)CCC(=O)O)C1=NOC(C)(C(=O)N[C@@H](CC(=O)O)C(=O)CN2CCCC2)C1` (stereo partly drawn) [Compound 78, (3S)-3-{3-[2-methyl-(1S)-1-(succinoylamino)-propyl]-5-methyl-4,5-dihydro-isoxazole-5-cabonylamino}-4-keto-5-(N-pyrrolidine)-pentanoic acid] stands 63900 nM.
Turning to `CC(=O)N[C@@H](CC(=O)O)C(=O)N[C@@H](CCC(=O)O)C(=O)N[C@H](C(=O)N[C@H](C=O)CC(=O)O)C(C)C` [Ac-DEVD-CHO], the “caspase-3-like activity increased by TNFα/ActD (FIG. 15A)” value in data set [2] was “not different”.
In the case of `CC(C)[C@H](NC(=O)CCC(=O)O)C1=NOC(C)(C(=O)N[C@@H](CC(=O)O)C(=O)COc2ccc3ccccc3c2)C1` (single isomer, unassigned) [Compound 82], the Ki at caspase-1 turned out to be 530 nM.
Same read-out and setting: with `CC(C)[C@H](NC(=O)c1cccc2ccccc12)C1=NOC(Cc2ccccc2)(C(=O)N[C@@H](CC(=O)O)C(=O)CN2CCCCC2)C1` (stereo partly drawn) [Compound 48, (3S)-3-{3-[2-Methyl-(1S)-1-(1-naphtalenycarbonylamino)-propyl]-5-phenylmethyl-4,5-dihydro-isoxazole-5-carbonylamino}-4-keto-5-(1-piperidinyl)-pentanoic Acid] the figure was 1.51 nM; with `CCCC1(C(=O)N[C@@H](CC(=O)O)C(=O)COc2ccccc2)CC([C@@H](NC(=O)CCC(=O)O)C(C)C)=NO1` (mixture of isomers) [Compound 83, (3S)-3-{3-[2-Methyl-(1S)-1-(succinoylamino)-propyl]-5-propyl-4,5-dihydro-isoxazole-5-carbonylamino}-4-keto-5-phenoxy-pentanoic Acid], 969 nM.
